Measured values as given in patent US20190374563A1, “TREATMENT OF KLEBSIELLA PNEUMONIAE INFECTIONS WITH ANTIBACTERIAL AMINOGLYCOSIDE COMPOUNDS” (Achaogen, Inc., priority 2009, published 2019).
In brackets after ≈: the same amount, converted by molar mass. Like-named read-outs stand apart in the source and are kept apart here.

Assays:
E. coli ATCC 25922 = assay: murine septicemia model of infection; type: in vivo; conditions: mice, single SC or IV dose 1 hour after IP challenge, mortality for 7 days; ED50 values are mg/kg
Protocol: (§1) Two models were run on each compound, using E. coli and P. aeruginosa QC bacterial strains. Both studies employed the same design. […] At 1 hour after bacterial challenge, the mice received a single SC or IV dose of vehicle or test substance to assess in vivo anti-infective activity. Mortality was recorded once daily for 7 days after bacterial inoculation.

P. aeruginosa ATCC 27853 = assay: murine septicemia model of infection; type: in vivo; conditions: mice, single SC or IV dose 1 hour after IP challenge, mortality for 7 days; ED50 values are mg/kg
Protocol: as §1

[1] = tested on: K. pneumoniae producing KPC (n = 25); assay: MIC by microdilution, clinical isolates; type: cell-based; conditions: K. pneumoniae producing KPC (n = 25); for S (%), susceptible isolates: CLSI criteria, tigecycline US FDA criteria; for MIC50 / MIC90: Klebsiella pneumoniae; for MIC50: read-out: MIC50; for MIC90: read-out: MIC90
Protocol: (§2) The in vitro activity of representative antibacterial aminoglycoside compounds against a collection of 102 K. pneumoniae clinical isolates collected from January 2006 to October 2007 at the University of Pittsburgh Medical Center, and three Cleveland institutions including University Hospitals Case Medical Center, the Cleveland Clinic, and the Louis Stokes Department of Veterans Affairs Medical Center was analyzed. The 102 K. pneumoniae isolates were selected based on a multidrug-resistant (MDR) phenotype (i.e., resistance to >3 antibiotic classes). Twenty-five isolates were KPC carbapenemase producing (KPC-Kp), and were part of a previous study where the β-lactamase background and clonality were characterized (see Endimiani, A., A. M. Hujer, F. Perez, C. R. Bethel, K. M. Hujer, J. Kroeger, M. Oethinger, D. L. Paterson, M. D. Adams, M. R. Jacobs, D. J. Diekema, G. S. Hall, S. G. Jenkins, L. B. Rice, F. C. Tenover, and R. A. Bonomo. 2009. Characterization of blaKPC-containing Klebsiella pneumoniae isolates detected in different institutions in the Eastern USA. J Antimicrob Chemother 63:427-37).
(§3) Minimum inhibitory concentrations (MICs) were performed by microdilution method using cation-adjusted Mueller-Hinton broth, according to the Clinical and Laboratory Standards Institute (CLSI) criteria (see CLSI. 2006. Methods for dilution antimicrobial susceptibility tests for bacteria that grow aerobically; approved standard-Seventh edition. Clinical and Laboratory Standard Institute, Wayne, Pa. CLSI document M7-A7). These MIC assays were conducted following the same protocol as set forth in Example 110. […] The following ATCC control strains were used: Escherichia coli ATCC 25922, Pseudomonas aeruginosa ATCC 27853, and K. pneumoniae ATCC 700603.

[2] = tested on: multidrug-resistant (MDR) K. pneumoniae isolates (n = 102); assay: MIC by microdilution, clinical isolates; type: cell-based; conditions: for MIC50 / MIC90: Klebsiella pneumoniae; for MIC50 / MIC90 / S (%), susceptible isolates: Total MDR K. pneumoniae isolates (n = 102); for MIC50: read-out: MIC50; for MIC90: read-out: MIC90; for S (%), susceptible isolates: CLSI criteria, tigecycline US FDA criteria
Protocol: as §2, §3

[3] = tested on: P. aeruginosa ATCC 27853 (APAE001); assay: MIC assay, CLSI broth microdilution; type: cell-based; conditions: Pseudomonas aeruginosa
Summary of the method: (§4)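 Broth microdilution per CLSI M7-A7, with serial two-fold compound dilutions in Mueller Hinton Broth mixed 1:1 with inoculum. Colonies from a previous-day agar plate were suspended in saline to a final 5×10^5 CFU/mL. Plates were incubated 20 hours at 35° C. in ambient air.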

[4] = tested on: E. coli ATCC 25922 (AECO001); assay: MIC assay, CLSI broth microdilution; type: cell-based; set-up: MIC AECO001: unit not given here; conditions: for MIC AECO001: Table 3, E. coli ATCC25922
Summary of the method: as §4

[5] = tested on: E. coli AECO040, AAC(6′)-I; assay: MIC assay, aminoglycoside resistant strain; type: cell-based; set-up: unit not given beside the values; conditions: Table 3; E. coli AAC(6′)-I
Protocol: (§5) Minimum inhibitory concentrations (MIC) were determined by reference Clinical and Laboratory Standards Institute (CLSI) broth microdilution methods per M7-A7 [2006]. Quality control ranges utilizing E. coli ATCC 25922, P. aeruginosa ATCC 27853 and S. aureus ATCC 29213, and interpretive criteria for comparator agents were as published in CLSI M100-S17 [2007]. Briefly, serial two-fold dilutions of the test compounds were prepared at 2× concentration in Mueller Hinton Broth. The compound dilutions were mixed in 96-well assay plates in a 1:1 ratio with bacterial inoculum. The inoculum was prepared by suspension of a colony from an agar plate that was prepared the previous day. Bacteria were suspended in sterile saline and added to each assay plate to obtain a final concentration of 5×10^5 CFU/mL. The plates were incubated at 35° C. for 20 hours in ambient air.
(§6) These MIC assays were conducted following the same protocol as set forth in Example 110. As shown, substituted sisomicin derivatives with groups other than methyl at the 6′-position have improved activity against strains expressing the AAC6′-modifying enzymes.

[6] = tested on: A. calcoaceticus AACA005, AAC(6′)-I; assay: MIC assay, aminoglycoside resistant strain; type: cell-based; set-up: unit not given beside the values; conditions: Table 3; A. calcoaceticus AAC(6′)-I
Protocol: as §5, §6

| SMILES | ED50/MIC E. Coli (E. coli ATCC 25922) | ED50/MIC P. aeruginosa (P. aeruginosa ATCC 27853) | MIC AECO040 [5] | MIC AACA005 [6] | MIC AECO001 [4] | also measured |
| --- | --- | --- | --- | --- | --- | --- |
| NCC[C@H](O)C(=O)N[C@@H]1C[C@H](N)[C@@H](O[C@H]2O[C@H](CN)[C@@H](O)[C@H](O)[C@H]2O)[C@H](O)[C@H]1O[C@H]1O[C@H](CO)[C@@H](O)[C@H](N)[C@H]1O [Amikacin, amikacin] | 1.5 | 13 | – | – | – | S (%), susceptible isolates [1]: 48.0%; S (%), susceptible isolates ([1]; listed as amikacin): 48%; MIC50 [1]: 32 µg/mL (≈ 54.6 µM); MIC90 [1]: 32 µg/mL (≈ 54.6 µM); MIC50 [2]: 2 µg/mL (≈ 3.42 µM); MIC90 [2]: 32 µg/mL (≈ 54.6 µM); isolates fully resistant (MICs of 64 μg/ml) ([2]; MDR K. pneumoniae isolates (n = 102)): five; S (%), susceptible isolates [2]: 78.4%; S (%), susceptible isolates ([2]; listed as amikacin): 78% |
| CN[C@@H]1[C@@H](O)[C@@H](O[C@@H]2[C@@H](O)[C@H](O[C@H]3OC(CNCC4CCNCC4)=CC[C@H]3N)[C@@H](N)C[C@H]2NC(=O)[C@@H](O)CN)OC[C@]1(C)O [Example 15, 6′-(Methyl-piperidin-4-yl)-1-(3-amino-2(S)-hydroxy-propionyl)-sisomicin] | <1 | 1 | – | – | – | MIC ([3]; ATCC27853, read-out: MIC APAE001): 1 to 16 µg/mL (≈ 1.58 to 25.3 µM) |
| CN[C@@H]1[C@@H](O)[C@@H](O[C@@H]2[C@@H](O)[C@H](O[C@H]3OC(CNCCO)=CC[C@H]3N)[C@@H](N)C[C@H]2NC(=O)[C@@H](O)CN)OC[C@]1(C)O [Example 16, 6′-(2-Hydroxy-ethyl)-1-(3-amino-2(S)-hydroxy-propionyl)-sisomicin] | 1 | 3 | – | – | – | – |
| CN[C@@H]1[C@@H](O)[C@@H](O[C@@H]2[C@@H](O)[C@H](O[C@H]3OC(CNCCCN)=CC[C@H]3N)[C@@H](N)C[C@H]2NC(=O)[C@@H](O)CN)OC[C@]1(C)O [Example 17, 6′-(3-Amino-propyl)-1-(3-amino-2(S)-hydroxy-propionyl)-sisomicin] | 1 | 5 | – | – | – | MIC ([3]; Table 1, APAE001 is ATCC27853, read-out: MIC APAE001): 1 to 16 µg/mL (≈ 1.69 to 27 µM) |
| CN[C@@H]1[C@@H](O)[C@@H](O[C@@H]2[C@@H](O)[C@H](O[C@H]3OC(CNCC(O)CN)=CC[C@H]3N)[C@@H](N)C[C@H]2NC(=O)[C@@H](O)CN)OC[C@]1(C)O (stereo partly drawn) [Example 22, 6′-(3-Amino-2-hydroxy-propyl)-1-(3-amino-2(S)-hydroxy-propionyl)-sisomicin] | 1 | 8 | – | – | – | – |
| CN[C@@H]1[C@@H](O)[C@@H](O[C@@H]2[C@@H](O)[C@H](O[C@H]3OC(CNCCCN)=CC[C@H]3N)[C@@H](N)C[C@H]2NC(=O)C2(O)CNC2)OC[C@]1(C)O [Example 57] | 2 | 14 | – | – | – | – |
| CN[C@@H]1[C@@H](O)[C@@H](O[C@@H]2[C@@H](O)[C@H](O[C@H]3OC(CN)=CC[C@H]3NC3CNC3)[C@@H](N)C[C@H]2NC(=O)[C@@H](O)CCN)OC[C@]1(C)O [Example 96, 2′-(Azetidin-3-yl)-1-(4-amino-2(S)-hydroxy-butyryl)-sisomicin] | <1 | 3 | – | – | – | – |
| CN[C@@H]1[C@@H](O)[C@@H](O[C@@H]2[C@@H](O)[C@H](O[C@H]3OC(CN)=CC[C@H]3NC(=N)N)[C@@H](N)C[C@H]2NC(=O)[C@@H](O)CCN)OC[C@]1(C)O [Example 103, 2′-Guanidinium-1-(4-amino-2(S)-hydroxy-butyryl)-sisomicin] | 2 | 6 | – | – | – | – |
| C[C@@H](O)[C@H]1C(=O)N2C(C(=O)O)=C(SCCN=CN)C[C@H]12 [Imipenem, imipenem] | – | – | – | – | – | MIC ([4]; Escherichia coli, ATCC25922): 0.125 µg/mL (≈ 0.418 µM); S (%), susceptible isolates [1]: 12.0%; MIC50 [1]: 8 µg/mL (≈ 26.7 µM); MIC90 [1]: > 16 µg/mL; MIC50 [2]: 0.5 µg/mL (≈ 1.67 µM); MIC90 [2]: 8 µg/mL (≈ 26.7 µM); S (%), susceptible isolates [2]: 75.5%; S (%), susceptible isolates ([2]; listed as imipenem): approximately 75% |
| CNCC1=CC[C@@H](N)[C@@H](O[C@H]2C(O)[C@@H](O[C@H]3OC[C@](C)(O)[C@H](NC)[C@H]3O)[C@H](N)C[C@@H]2N)O1 (some centres unmarked) [Mono-substituted Compound 1] | – | – | >64 | 2 | 1 | – |
| CN[C@@H]1[C@@H](O)[C@@H](O[C@@H]2C(O)[C@H](O[C@H]3OC(CNCC4CC4)=CC[C@H]3N)[C@@H](N)C[C@H]2N)OC[C@]1(C)O (some centres unmarked) [Mono-substituted Compound 2] | – | – | 1 | 4 | 1 | – |
| CN[C@@H]1[C@@H](O)[C@@H](O[C@@H]2C(O)[C@H](O[C@H]3OC(CNCC4CCNCC4)=CC[C@H]3N)[C@@H](N)C[C@H]2N)OC[C@]1(C)O (some centres unmarked) [Mono-substituted Compound 3] | – | – | 0.25 | 0.5 | 0.5 | – |
| CN[C@@H]1[C@@H](O)[C@@H](O[C@@H]2C(O)[C@H](O[C@H]3OC(CNCCCN)=CC[C@H]3N)[C@@H](N)C[C@H]2N)OC[C@]1(C)O (some centres unmarked) [Mono-substituted Compound 4] | – | – | 16 | 1 | 2 | – |
| CN[C@@H]1C(O)[C@@H](O[C@@H]2[C@@H](O)[C@H](OC3OC(CN)=CC[C@H]3N)[C@@H](N)C[C@H]2NC(=O)[C@@H](O)CN)OC[C@]1(C)O (some centres unmarked) [Mono-substituted Compound 5] | – | – | 8 | 32 | 0.5 | – |
| CN[C@@H]1C(O)[C@@H](O[C@@H]2[C@@H](O)[C@H](OC3OC(CN)=CC[C@H]3N)[C@@H](N)C[C@H]2NC(=O)[C@@H](O)CCN)OC[C@]1(C)O (some centres unmarked) [Mono-substituted Compound 6] | – | – | 4 | 16 | 0.5 | – |
| CN[C@@H]1C(O)[C@@H](O[C@@H]2[C@@H](O)[C@H](OC3OC(CN)=CC[C@H]3N)[C@@H](N)C[C@H]2NC(=O)C2(O)CNC2)OC[C@]1(C)O (some centres unmarked) [Mono-substituted Compound 7] | – | – | 4 | 32 | 1 | – |
